# Test results taken from patent publication US20110190336A1, “AZABENZIMIDAZOLONES” (CARA THERAPEUTICS, INC., priority 2008, published 2011).
# Target: T1, human DP2 receptor (Homo sapiens, UniProt Q9Y5Y4)
# T1 construct: expressed in transfected cells; host or cells: CHO-K1 FLP-In (Invitrogen, catalog no. R758-07), stably transfected
# T1 sequence (Q9Y5Y4 1-395): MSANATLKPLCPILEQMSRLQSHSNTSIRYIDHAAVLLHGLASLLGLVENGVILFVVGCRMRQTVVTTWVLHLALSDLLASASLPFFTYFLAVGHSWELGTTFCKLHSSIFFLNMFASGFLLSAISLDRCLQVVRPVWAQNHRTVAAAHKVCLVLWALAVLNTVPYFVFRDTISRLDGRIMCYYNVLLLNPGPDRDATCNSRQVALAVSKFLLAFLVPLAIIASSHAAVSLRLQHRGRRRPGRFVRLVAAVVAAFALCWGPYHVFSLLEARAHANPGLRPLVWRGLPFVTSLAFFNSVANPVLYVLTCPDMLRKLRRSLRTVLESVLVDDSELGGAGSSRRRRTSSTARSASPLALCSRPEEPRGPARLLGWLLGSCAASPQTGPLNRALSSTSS
# Test: Prostaglandin D2 binding inhibition assay (scintillation proximity assay, 3H PGD2, membranes of transfected CHO cells)
# Conditions: SPA, 5.5 nM 3H PGD2, CHO-K1 FLP-In human DP2 membranes; upper limit determinable 30 μM; read-out: IC50 ranges for inhibition of PGD2 binding to human DP2
# Procedure: The ability of compounds to inhibit binding of prostaglandin D2 (PGD2) to the human DP2 receptor was measured using a scintillation proximity assay (SPA). Chinese Hamster Ovary FLP-In cell lines (CHO-K1 FLP-In, Invitrogen, catalog no. R758-07) were stably transfected with the human DP2 gene (Genebank: AY507142). Cell lines were grown in suspension in EX-CELL 302 CHO Serum-free medium (Sigma, catalog no. 14324C) supplemented with 1% Fetal Bovine Serum (Invitrogen no. 10099-141), 2 mM L-glutamine (Invitrogen, catalog no. 25030-081) and 0.5 mg/ml Hygromycin B (Invitrogen, catalog no. 10687-010). Cells were collected by centrifugation in a Beckman Coulter Allegra X-12R centrifuge at 150×g for 5 minutes at room temperature.
# Membranes from transfected cells were isolated for binding assays. Cell pellets containing approximately 2×10^9 cells were resuspended in 35 ml of cold membrane homogenization buffer (10 mM Tris (Sigma, catalog no. T2663), 1 mM EDTA (Fluka BioChemika no. 03690), and 70 μl of protease inhibitor cocktail (Sigma, catalog no. P8340)). Cells were homogenized with 30 strokes of a dounce homogenizer (Kontes, catalog no. 885303-0040), and the solution centrifuged at 200×g for 10 minutes. The supernatant was transferred to a 50 ml Oakridge tube (Beckman, catalog no. 357000) and centrifuged in a Beckman Coulter Avanti J-26×PI centrifuge with a JA30.50 rotor at 81,000×g for 1 hour at 15° C. The pellet was resuspended in membrane storage buffer (50 mM Tris (Sigma, catalog no. T2663), 2.5 mM EDTA (Fluka BioChemika no. 03690), 5 mM magnesium chloride (Sigma, catalog no. M1028), 100 mg/ml sucrose (Sigma, catalog no. 50389) and a 1:500 dilution of protease inhibitor cocktail (Sigma, catalog no. P8340)) and the total protein was quantitated using a BCA protein measurement kit (Pierce, catalog no. 23225). Aliquots were frozen at −80° C. until used. Compounds were tested for their ability to inhibit PGD2 binding to the purified membranes. 5 μg of the purified membranes, 0.25 mg of wheat germ agglutinin PVT SPA beads (GE Healthcare, catalog no. RPNQ0060) and 5.5 nM of ^3H PGD2 (PerkinElmer, catalog no. NET-616) were mixed in assay buffer ((50 mM Tris (Sigma, catalog no. T2663), 10 mM magnesium chloride (Sigma, catalog no. M1028), 100 mM sodium chloride (Sigma, catalog no. S6546) and 0.1% bovine serum albumin (Sigma, catalog no. A2153)). Using a Multidrop bulk dispenser, 75 μl of the assay mixture was dispensed in Optiplates (PerkinElmer, catalog no. 6007299) containing the compounds to be tested. After a 60 minute incubation period at room temperature, the plates were read on a PerkinElmer Topcount NXT HTS, and individual wells were quantitated as counts per minute (CPM). Data were expressed as a percent of the difference between the maximum and minimum responses. IC50 values (the concentration of compound producing 50% of the maximal response) were determined using a two-parameter non-linear regression algorithm analyzed using CambridgeSoft Bioassay software. Table 2 gives the range of IC50 values for claimed compounds in the binding assay.
row,Structure (SMILES),IC50
1,"O=C(O)Cn1c(=O)n(C2CCN(S(=O)(=O)c3ccc(Cl)cc3F)CC2)c2ncccc21 [Compound 30, 2-(3-(1-(4-chloro-2-fluorophenylsulfonyl)piperidin-4-yl)-2-oxo-2,3-dihydro-1H-imidazo[4,5-b]pyridin-1-yl)acetic acid]",< 1000 nM
2,"O=C(O)Cn1c(=O)n(C2CCN(S(=O)(=O)c3ccc(Cl)cc3Cl)CC2)c2ncccc21 [Compound 31, 2-(3-(1-(2,4-dichlorophenyl-sulfonyl)piperidin-4-yl)-2-oxo-2,3-dihydro-1H-imidazo[4,5-b]pyridin-1-yl)acetic acid]",< 1000 nM
3,"O=C(O)Cn1c(=O)n(C2CCN(S(=O)(=O)c3cccc4ccccc34)CC2)c2ncccc21 [Compound 32, 2-(3-(1-(naphthalen-1-ylsulfonyl)piperidin-4-yl)-2-oxo-2,3-dihydro-1H-imidazo[4,5-b]pyridin-1-yl)acetic acid]",1000 to 10000 nM
4,"O=C(O)Cn1c(=O)n(C2CCN(S(=O)(=O)c3ccccc3OC(F)(F)F)CC2)c2ncccc21 [Compound 33, 2-(2-oxo-3-(1-(2-(trifluoromethoxy)phenylsulfonyl)piperidin-4-yl)-2,3-dihydro-1H-imidazo[4,5-b]pyridin-1-yl)acetic acid]",1000 to 10000 nM
5,"O=C(O)Cn1c(=O)n(C2CCN(S(=O)(=O)C3CCCCC3)CC2)c2ncccc21 [Compound 34, 2-(3-(1-(cyclohexylsulfonyl)piperidin-4-yl)-2-oxo-2,3-dihydro-1H-imidazo [4,5-b]pyridin-1-yl)acetic acid]",1000 to 10000 nM
6,"O=C(O)Cn1c(=O)n(C2CCN(S(=O)(=O)c3ccc(Cl)c(Cl)c3)CC2)c2ncccc21 [Compound 35, 2-(3-(1-(3,4-dichlorophenyl-sulfonyl)piperidin-4-yl)-2-oxo-2,3-dihydro-1H-imidazo[4,5-b]pyridin-1-yl)acetic acid]",1000 to 10000 nM
7,"Cc1cc(F)ccc1S(=O)(=O)N1CCC(n2c(=O)n(CC(=O)O)c3cccnc32)CC1 [Compound 36, 2-(3-(1-(4-fluoro-2-methylphenyl-sulfonyl)piperidin-4-yl)-2-oxo-2,3-dihydro-1H-imidazo[4,5-b]pyridin-1-yl)acetic acid]",< 1000 nM
8,"O=C(O)Cn1c(=O)n(C2CCN(S(=O)(=O)c3cccc(Cl)c3)CC2)c2ncccc21 [Compound 37, 2-(3-(1-(3-chlorophenyl-sulfonyl)piperidin-4-yl)-2-oxo-2,3-dihydro-1H-imidazo[4,5-b]pyridin-1-yl)acetic acid]",1000 to 10000 nM
9,"Cc1cccc(S(=O)(=O)N2CCC(n3c(=O)n(CC(=O)O)c4cccnc43)CC2)c1 [Compound 38, 2-(2-oxo-3-(1-(m-tolylsulfonyl)piperidin-4-yl)-2,3-dihydro-1H-imidazo[4,5-b]pyridin-1-yl)acetic acid]",1000 to 10000 nM
10,"O=C(O)Cn1c(=O)n(C2CCN(S(=O)(=O)c3ccc(C(F)(F)F)cc3)CC2)c2ncccc21 [Compound 39, 2-(2-oxo-3-(1-(4-(trifluoromethyl)phenylsulfonyl)piperidin-4-yl)-2,3-dihydro-1H-imidazo[4,5-b]pyridin-1-yl)acetic acid]",1000 to 10000 nM
11,"O=C(O)Cn1c(=O)n(C2CCN(S(=O)(=O)c3ccc(F)c(F)c3)CC2)c2ncccc21 [Compound 40, 2-(3-(1-(3,4-difluorophenylsulfonyl)piperidin-4-yl)-2-oxo-2,3-dihydro-1H-imidazo[4,5-b]pyridin-1-yl)acetic acid]",1000 to 10000 nM
12,"O=C(O)Cn1c(=O)n(C2CCN(S(=O)(=O)c3cccc(C(F)(F)F)c3)CC2)c2ncccc21 [Compound 41, 2-(2-oxo-3-(1-(3-(trifluoromethyl)phenylsulfonyl)piperidin-4-yl)-2,3-dihydro-1H-imidazo[4,5-b]pyridin-1-yl)acetic acid]",1000 to 10000 nM

# Results, then the compound that gave them:
row,IC50,Structure (SMILES)
1,1000 to 10000 nM,"O=C(O)Cn1c(=O)n(C2CCN(S(=O)(=O)c3ccc(OC(F)(F)F)cc3)CC2)c2ncccc21 [Compound 42, 2-(2-oxo-3-(1-(4-(trifluoromethoxy)phenylsulfonyl)piperidin-4-yl)-2,3-dihydro-1H-imidazo[4,5-b]pyridin-1-yl)acetic acid]"
2,10000 to 30000 nM,"CCS(=O)(=O)N1CCC(n2c(=O)n(CC(=O)O)c3cccnc32)CC1 [Compound 43, 2-(3-(1-(ethylsulfonyl)piperidin-4-yl)-2-oxo-2,3-dihydro-1H-imidazo[4,5-b]pyridin-1-yl)acetic acid]"
3,1000 to 10000 nM,"CCCS(=O)(=O)N1CCC(n2c(=O)n(CC(=O)O)c3cccnc32)CC1 [Compound 44, 2-(2-oxo-3-(1-(propylsulfonyl)piperidin-4-yl)-2,3-dihydro-1H-imidazo[4,5-b]pyridin-1-yl)acetic acid]"
4,1000 to 10000 nM,"O=C(O)Cn1c(=O)n(C2CCN(S(=O)(=O)c3cccc(OC(F)(F)F)c3)CC2)c2ncccc21 [Compound 45, 2-(2-oxo-3-(1-(3-(trifluoromethoxy)phenylsulfonyl)piperidin-4-yl)-2,3-dihydro-1H-imidazo[4,5-b]pyridin-1-yl)acetic acid]"
5,1000 to 10000 nM,"Cc1ccc(S(=O)(=O)N2CCC(n3c(=O)n(CC(=O)O)c4cccnc43)CC2)cc1 [Compound 46, 2-(2-oxo-3-(1-(p-tolylsulfonyl)piperidin-4-yl)-2,3-dihydro-1H-imidazo[4,5-b]pyridin-1-yl)acetic acid]"
6,10000 to 30000 nM,"COc1ccc(S(=O)(=O)N2CCC(n3c(=O)n(CC(=O)O)c4cccnc43)CC2)cc1OC [Compound 47, 2-(3-(1-(3,4-dimethoxyphenyl-sulfonyl)piperidin-4-yl)-2-oxo-2,3-dihydro-1H-imidazo[4,5-b]pyridin-1-yl)acetic acid]"
7,1000 to 10000 nM,"CC(C)CS(=O)(=O)N1CCC(n2c(=O)n(CC(=O)O)c3cccnc32)CC1 [Compound 48, 2-(3-(1-(isobutylsulfonyl)piperidin-4-yl)-2-oxo-2,3-dihydro-1H-imidazo[4,5-b]pyridin-1-yl)acetic acid]"
8,< 1000 nM,"O=C(O)Cn1c(=O)n(C2CCN(S(=O)(=O)c3cccc4cccnc34)CC2)c2ncccc21 [Compound 49, 2-(2-oxo-3-(1-(quinolin-8-ylsulfonyl)piperidin-4-yl)-2,3-dihydro-1H-imidazo[4,5-b]pyridin-1-yl)acetic acid]"
9,1000 to 10000 nM,"Cc1cc(C)c(S(=O)(=O)N2CCC(n3c(=O)n(CC(=O)O)c4cccnc43)CC2)c(C)c1 [Compound 50, 2-(3-(1-(mesitylsulfonyl)piperidin-4-yl)-2-oxo-2,3-dihydro-1H-imidazo[4,5-b]pyridin-1-yl)acetic acid]"
10,< 1000 nM,"O=C(O)Cn1c(=O)n(C2CCN(S(=O)(=O)c3ccc(F)cc3Cl)CC2)c2ncccc21 [Compound 51, 2-(3-(1-(2-chloro-4-fluorophenyl-sulfonyl)piperidin-4-yl)-2-oxo-2,3-dihydro-1H-imidazo[4,5-b]pyridin-1-yl)acetic acid]"
11,1000 to 10000 nM,"CC(C)S(=O)(=O)N1CCC(n2c(=O)n(CC(=O)O)c3cccnc32)CC1 [Compound 52, 2-(3-(1-(isopropylsulfonyl)piperidin-4-yl)-2-oxo-2,3-dihydro-1H-imidazo[4,5-b]pyridin-1-yl)acetic acid]"
12,1000 to 10000 nM,"Cc1ccc(S(=O)(=O)N2CCC(n3c(=O)n(CC(=O)O)c4cccnc43)CC2)s1 [Compound 53, 2-(3-(1-(5-methylthiophen-2-ylsulfonyl)piperidin-4-yl)-2-oxo-2,3-dihydro-1H-imidazo[4,5-b]pyridin-1-yl)acetic acid]"
